Experimental data reported in patent US20240228390A1, “Chelated Nutrients and Methods of Use Thereof” (ICL AMERICA DO SUL S.A., priority 2021, published 2024).

Assay: Stability testing at different pH levels
Type: physicochemical
Conditions: Chelate A (glutamic acid + malic acid)
Method: Stability testing at different PH levels was performed and turning to Table 1, there is a large range of the chelates' stability, wherein the structure of the chelates can be considered stable.

Stability pH of the chelates, Acid medium (acid limit of stable pH range): 0.20
Stability pH of the chelates, Alkaline medium (alkaline limit of stable pH range): 11.30
Substance: [Zn(Glu)(Mal)]2Na [Chelate A Zn^2+]
